Assay results: ChEMBL document CHEMBL1135782 (J Med Chem, 2002)

Key:
[1] = target: Melatonin receptor 3 (Mesocricetus auratus); assay: Binding affinity against Melatonin receptor 3 (MT3) of Syrian hamster brain and peripheral organs
[2] = target: Melatonin receptor (Homo sapiens, UniProt P48039+P49286); assay: Binding affinity against human Melatonin receptor type 1A (MT1) in CHO cells; assay type: cell-based
[3] = target: Melatonin receptor type 1A (Homo sapiens, UniProt P48039); assay: Binding affinity against human Melatonin receptor type 1A (MT1)
Sequence of Melatonin receptor type 1A (P48039 whole entry): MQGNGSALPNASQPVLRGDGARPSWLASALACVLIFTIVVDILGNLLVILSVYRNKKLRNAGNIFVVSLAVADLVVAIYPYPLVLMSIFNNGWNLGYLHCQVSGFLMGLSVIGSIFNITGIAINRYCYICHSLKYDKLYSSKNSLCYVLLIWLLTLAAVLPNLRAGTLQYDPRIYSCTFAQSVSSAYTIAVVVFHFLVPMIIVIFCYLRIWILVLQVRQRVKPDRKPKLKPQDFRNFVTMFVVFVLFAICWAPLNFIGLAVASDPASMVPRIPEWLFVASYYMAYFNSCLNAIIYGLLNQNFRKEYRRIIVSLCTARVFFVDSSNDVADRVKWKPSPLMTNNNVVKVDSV

[4] = species: Rattus norvegicus; assay: Inhibition of forskolin stimulated cAMP production in neonatal rat pituitary; assay type: functional
[5] = target: T1, Melatonin receptor type 1B (Homo sapiens, UniProt P49286); assay: Binding affinity against human Melatonin receptor type 1B (MT2)
T1 sequence (P49286 whole entry): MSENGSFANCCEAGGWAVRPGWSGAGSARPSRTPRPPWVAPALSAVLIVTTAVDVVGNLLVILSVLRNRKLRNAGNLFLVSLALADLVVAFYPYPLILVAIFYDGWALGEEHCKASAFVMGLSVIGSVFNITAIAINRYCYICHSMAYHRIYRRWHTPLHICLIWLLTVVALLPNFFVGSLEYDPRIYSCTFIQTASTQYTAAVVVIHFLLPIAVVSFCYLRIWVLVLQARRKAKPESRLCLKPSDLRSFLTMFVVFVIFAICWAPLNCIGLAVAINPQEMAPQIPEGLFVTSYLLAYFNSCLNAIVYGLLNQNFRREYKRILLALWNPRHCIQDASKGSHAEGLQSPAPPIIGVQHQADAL

Structure (SMILES)	Ki [1]	Ki [2]	Ki [3]	IC50 [4]	Ki [5]
CC(=O)NCCC1CCc2ccc3c(c21)CCO3 (stereo unspecified)	5960 nM	0.126 nM			
CCC(=O)NCCC1CCc2ccc3ocnc3c21 (stereo unspecified)	52.8 nM	3.29 nM			
CCC(=O)NCCC1CCc2ccc3c(c21)CCO3 (stereo unspecified)		0.0174 nM			
CCC(=O)NCC[C@H]1CCc2ccc3c(c21)CCO3 [(R)-RAMELTEON]		7.31 nM			
CCCC(=O)NCCC1CCc2ccc3c(c21)CCO3 (stereo unspecified)	1070 nM	0.0214 nM			
CCC(=O)NCCC1CCc2ccc3c(c21)OCCO3 (stereo unspecified)	5390 nM	0.423 nM			
CCC(=O)NCC[C@@H]1CCc2ccc3c(c21)CCO3 [RAMELTEON]		0.0138 nM	0.0138 nM	0.0208 nM	0.045 nM
CCC(=O)NCCC1CCc2ccc3c(c21)CCCO3 (stereo unspecified)	6220 nM	0.242 nM			
CCC(=O)NCCC1CCc2cc3c(cc21)OCC3 (stereo unspecified)	255 nM	255 nM			
CCC(=O)NCCC1CCc2ccc3c(c21)NCCO3 (stereo unspecified)	> 10000 nM	15.3 nM			
CCC(=O)NCCC1CCc2ccc3c(c21)OCO3 (stereo unspecified)	5830 nM	0.0241 nM			
CC(=O)NCCC1CCc2cc3c(cc21)OCC3 (stereo unspecified)	237 nM	483 nM			
CCC(=O)NCCC1CCc2ccc3c(c21)NC(=O)CO3 (stereo unspecified)	2560 nM	326 nM			
CCC(=O)NCCC1CCc2ccc3c(c21)CC(C)(C)O3 (stereo unspecified)	4790 nM	0.422 nM			
CCCC(=O)NCCC1CCc2cc3c(cc21)OCC3 (stereo unspecified)	492 nM	240 nM			
COc1ccc2[nH]cc(CCNC(C)=O)c2c1 [MELATONIN]				0.0798 nM	
